{
  "source": "patent US20210255193A1",
  "about": "“LYSINE REACTIVE PROBES AND USES THEREOF” (The Scripps Research Institute, priority 2017, published 2021)",
  "assay_in_all_cases": "competitive isoTOP-ABPP",
  "type_in_all_cases": "binding",
  "key": {"[1]": {"target": "T1, SRP54 Signal recognition particle 54 kDa protein (Homo sapiens, UniProt P61011)", "T1 construct": "isoTOP-ABPP experiments performed in cell lysates (in vitro); endogenous in cells; host or cells: soluble proteome of human cancer cell lines (MDA-MB-231, Ramos, Jurkat)", "T1 sequence (P61011 whole entry, the tested form may be a part)": "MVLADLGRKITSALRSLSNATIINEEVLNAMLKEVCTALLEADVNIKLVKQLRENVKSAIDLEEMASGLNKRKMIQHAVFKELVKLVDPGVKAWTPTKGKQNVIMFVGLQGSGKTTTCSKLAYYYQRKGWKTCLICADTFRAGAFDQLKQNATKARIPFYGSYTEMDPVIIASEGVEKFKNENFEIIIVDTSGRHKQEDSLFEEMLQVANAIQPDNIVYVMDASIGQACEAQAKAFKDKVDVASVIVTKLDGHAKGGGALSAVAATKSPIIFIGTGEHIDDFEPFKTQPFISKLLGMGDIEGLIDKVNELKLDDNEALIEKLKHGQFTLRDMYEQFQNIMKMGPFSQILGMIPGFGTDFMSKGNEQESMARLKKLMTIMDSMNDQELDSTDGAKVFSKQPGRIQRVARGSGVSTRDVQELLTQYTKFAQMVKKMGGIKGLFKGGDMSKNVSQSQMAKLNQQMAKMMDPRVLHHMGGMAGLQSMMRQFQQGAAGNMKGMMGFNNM", "settings": "P61011_K81; 50 uM, 231 sol, in vitro", "protocol": "(§1) In vitro covalent fragment treatment for isoTOP-ABPP. All compounds were made up as solutions in DMSO (100×) and were used at a final concentration of 50 μM for activated esters and 100 μM for guanidinylating agents. For each profiling sample, 0.5 ml of lysate was treated with 5 μl of the 100× compound stock solution or 5 μl of DMSO. Samples were treated with activated esters for\n(§2) STP-alkyne labeling and click chemistry. For concentration-dependent reactivity measurements by isoTOP-ABPP, 0.5 ml proteome aliquots were treated at ambient temperature with 1 mM STP-alkyne 1 (5 μl of 100 mM stock in DMSO) and 0.1 mM STP alkyne 1 (5 μl of 10 mM stock in DMSO), respectively. For competitive isoTOP-ABPP, after in vitro fragment treatment (detailed above), the samples were labeled for 1 h at ambient temperature with 0.1 mM STP-alkyne 1 (5 μl of 10 mM stock in DMSO). Samples were conjugated by copper-mediated azide-alkyne cycloaddition (CuAAC) to either the light (1 mM STP-alkyne or fragment treated) or heavy (0.1 mM STP-alkyne or DMSO treated) TEV tags (10 μl of 5 mM stocks in DMSO, final concentration=100 μM) using tris(2-carboxyethyl)phosphine hydrochloride\n(§3) R value calculation and processing. The ratios of light and heavy MS1 peaks for each unique peptide were quantified with a CIMAGE software using default parameters (3 MS1 acquisitions per peak and signal to noise threshold set to 2.5). For reactivity measurements by isoTOP-ABPP, the R value was calculated from the ratio of MS1 peak areas, comparing the 1 mM STP alkyne sample (light TEV tag) with the 0.1 mM STP alkyne sample (heavy TEV tag). For competitive isoTOP-ABPP, the R value was calculated from the ratio of MS1 peak areas, comparing the DMSO treated sample (heavy TEV tag) with the compound treated sample (light TEV tag). […] Ratios for unique peptide entries are calculated for each experiment; overlapping peptides with the same modified lysine (for example, different charge states, MudPIT chromatographic steps or tryptic termini) are grouped together and the median ratio is reported as the final ratio (R). The peptide ratios reported by CIMAGE were further filtered to ensure the removal or correction of low-quality ratios in each individual data set. The quality filters applied were the following: removal of half tryptic peptides; for ratios with high standard deviations from the median (90% of the median or above) the lowest ratio was taken instead of the median; removal of peptides with R=20 and only a single MS2 event triggered during the elution of the parent ion; manual annotation of all the peptides with ratios of 20, removing any peptides with low quality elution profiles that remained after the previous curation steps (only done for competitive isoTOP-ABPP).\n(§4) Cross-data processing for fragment screening. For compound treated samples, biological replicates of the same condition were averaged, if the standard deviation was below 60% of the mean; otherwise, for lysines with at least one R value <4 for a particular compound, the lowest value of the ratio set was taken. For lysines, where all R values for a particular compound were ≥4, the average was reported. For peptides containing several possible modified lysines, the lysine with the highest number of quantification events was used for analysis and the remaining, redundant peptides were reported as alternative modification sites. Peptides included in the aggregate dataset (those used for further bioinformatics and statistical analyses) were required to have been quantified in 2 experiments for competitive isoTOP-ABPP. Lysines were categorized as liganded, if they had at least one ratio R≥4 (hit fragments). For liganded lysines with R=20 for all liganding events, lysines were required to have been quantified with R=20 in two separate experiments and were further required to have been quantified with R<20 in one additional experiment."}, "[2]": {"target": "T2, PSME3 Proteasome activator complex subunit 3 (Homo sapiens, UniProt P61289)", "T2 construct": "isoTOP-ABPP experiments performed in cell lysates (in vitro); endogenous in cells; host or cells: soluble proteome of human cancer cell lines (MDA-MB-231, Ramos, Jurkat)", "T2 sequence (P61289 whole entry, one chain of several)": "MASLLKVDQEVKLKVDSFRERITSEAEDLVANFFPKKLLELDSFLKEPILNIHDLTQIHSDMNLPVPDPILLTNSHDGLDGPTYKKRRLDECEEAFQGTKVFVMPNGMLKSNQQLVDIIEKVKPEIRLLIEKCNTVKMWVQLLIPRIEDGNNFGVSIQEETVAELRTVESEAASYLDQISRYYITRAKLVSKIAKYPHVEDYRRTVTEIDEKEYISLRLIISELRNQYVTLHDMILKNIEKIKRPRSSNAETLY", "settings": "50 uM, 231 sol, in vitro", "protocol": "as §1, §2, §3, §4"}, "[3]": {"target": "T3, ACBD3 Golgi resident protein GCP60 (Homo sapiens, UniProt Q9H3P7)", "T3 construct": "isoTOP-ABPP experiments performed in cell lysates (in vitro); endogenous in cells; host or cells: soluble proteome of human cancer cell lines (MDA-MB-231; Ramos and Jurkat also prepared)", "T3 sequence (Q9H3P7 1-528)": "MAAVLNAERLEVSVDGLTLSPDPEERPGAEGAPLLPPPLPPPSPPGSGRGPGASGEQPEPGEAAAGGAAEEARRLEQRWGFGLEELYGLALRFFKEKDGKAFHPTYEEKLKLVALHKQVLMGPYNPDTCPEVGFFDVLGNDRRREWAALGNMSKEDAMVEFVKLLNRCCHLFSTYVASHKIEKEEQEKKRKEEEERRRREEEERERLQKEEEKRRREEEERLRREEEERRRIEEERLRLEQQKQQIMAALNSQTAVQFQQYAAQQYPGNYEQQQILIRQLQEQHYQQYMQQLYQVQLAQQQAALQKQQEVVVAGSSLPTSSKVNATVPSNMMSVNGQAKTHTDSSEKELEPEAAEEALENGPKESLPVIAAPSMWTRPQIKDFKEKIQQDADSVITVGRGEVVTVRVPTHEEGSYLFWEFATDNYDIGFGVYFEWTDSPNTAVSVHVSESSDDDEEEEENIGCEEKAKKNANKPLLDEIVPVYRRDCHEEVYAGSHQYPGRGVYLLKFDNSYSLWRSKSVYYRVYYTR", "settings": "Q9H3P7_K117; 50 uM, 231 sol, in vitro", "protocol": "as §1, §2, §3, §4"}, "[4]": {"target": "T4, RPS10 40S ribosomal protein S10 (Homo sapiens, UniProt P46783)", "T4 construct": "isoTOP-ABPP experiments performed in cell lysates (in vitro); endogenous in cells; host or cells: soluble proteome of human cancer cell lines (MDA-MB-231; Ramos and Jurkat also prepared)", "settings": "P46783_K139; 50 uM, 231 sol, in vitro", "outline": "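Cell lysate treated in vitro with fragments (50 μM activated esters, 100 μM guanidinylating agents) or DMSO, labelled 1 h at ambient temperature with 0.1 mM STP-alkyne, CuAAC-tagged with light/heavy TEV tags, analysed by MS. R = DMSO/compound MS1 peak-area ratio; lysines with R≥4 called liganded.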"}},
  "data": [
    {"smiles": "O=C(Oc1c(F)c(F)c(F)c(F)c1F)C(c1ccccc1)c1ccccc1", "note": "[fragment 20, Pentafluorophenyl 2,2-diphenylacetate]", "values": [
      {"measurement": "R value (DMSO/fragment) for probe 1 labeling", "setting": "[1]", "result": 1.0},
      {"measurement": "R value (DMSO/fragment) for probe 1 labeling", "setting": "[2]; P61289_K12", "result": 0.9},
      {"measurement": "R value (DMSO/fragment) for probe 1 labeling", "setting": "[2]; P61289_K237", "result": 0.9},
      {"measurement": "R value (DMSO/fragment) for probe 1 labeling", "setting": "[3]", "result": 1.2},
      {"measurement": "R value (DMSO/fragment) for probe 1 labeling", "setting": "[4]", "result": 0.6}
    ]},
    {"smiles": "O=C(Oc1c(F)c(F)c(F)c(F)c1F)c1cc(C(F)(F)F)cc(C(F)(F)F)c1", "note": "[fragment 21, Pentafluorophenyl 3,5-bis(trifluoromethyl)benzoate]", "values": [
      {"measurement": "R value (DMSO/fragment) for probe 1 labeling", "setting": "[1]", "result": 0.7},
      {"measurement": "R value (DMSO/fragment) for probe 1 labeling", "setting": "[2]; P61289_K12", "result": 1.0},
      {"measurement": "R value (DMSO/fragment) for probe 1 labeling", "setting": "[2]; P61289_K237", "result": 0.9},
      {"measurement": "R value (DMSO/fragment) for probe 1 labeling", "setting": "[3]", "result": 0.9},
      {"measurement": "R value (DMSO/fragment) for probe 1 labeling", "setting": "[4]", "result": 0.5}
    ]}
  ]
}
